Test results reported in patent US9005677B2, “Autophagy enhancer for treatment of neurodegenerative diseases” (Macau University of Science and Technology, priority 2013, dated 2015).

System: PC12 cells expressing GFP-LC3
Test: GFP-LC3 puncta in the presence of specific inhibitors
Format: cell-based, rat
Details: 12 hours
Method: Quantification of Onjisaponin B-mediated autophagy in the presence of specific inhibitors. GFP-LC3 puncta formation was quantified as described previously. In brief, PC12 cells expressing GFP-LC3 were treated with Onjisaponin B (Onji, 25 μM) in the presence of AMPK inhibitor (compound C) (CC, 5 μM) or 3-Methyladenine (3-MA, 5 mM) for 12 hours. The cells were then fixed in 4% paraformaldehyde for 20 minutes at room temperature and then rinsed with PBS. Slides were mounted with FluorSave™ mounting media (Calbiochem) and examined by fluorescence microscopy. To quantify for autophagy, the percentage of cells with punctate GFP-LC3 fluorescence was calculated by counting the number of the cells with punctate GFP-LC3 fluorescence in GFP-positive cells. A minimum of 150 cells from 3 randomly selected fields was scored.

COc1ccc(/C=C/C(=O)O[C@@H]2[C@H](O[C@@H]3O[C@@H](C)[C@H](O)[C@@H](O)[C@H]3O)[C@@H](O[C@@H]3O[C@@H](C)[C@H](O[C@@H]4OC[C@@H](O[C@@H]5O[C@H](CO)[C@H](O)[C@H](O)[C@H]5O)[C@H](O)[C@H]4O)[C@@H](O)[C@H]3O)[C@H](OC(=O)[C@]34CCC(C)(C)C[C@H]3C3=CC[C@@H]5[C@@]6(C)C[C@H](O)[C@H](O[C@@H]7O[C@H](CO)[C@@H](O)[C@H](O)[C@H]7O)[C@@](C)(C(=O)O)[C@@H]6CC[C@@]5(C)[C@]3(CO)CC4)O[C@@H]2C)cc1 [Onjisaponin B]
Onjisaponin B-induced GFP-LC3 puncta formation in the presence of 3-Methyladenine (Onjisaponin B 25 μM + 3-MA 5 mM): significant reduction
Onjisaponin B-induced GFP-LC3 puncta formation in the presence of AMPK inhibitor (compound C) (Onjisaponin B 25 μM + compound C 5 μM): significant reduction
